The values that follow come from patent US20040039211A1, “Tetrapyrroles” (DUKE UNIVERSITY AND NATIONAL JEWISH MEDICAL AND RESEARCH …, priority 2000, published 2004).

The nature of data set [1]: Hydrolysis / dissociation of the complex in methanol/aqueous or water solution. It is filed as physicochemical. Particulars: water. Here is the method:
Uv/vis Spectroscopy. […] Also the effects of EDTA, H2O2, and the methanol/water ratio on the stability of the manganese(III) complex were examined. […] […] 79:699 (1960)). When needed the biliverdin and biliverdin dimethylester as well as their reduced forms bilirubin and bilirubin dimethylester were studied. […] In a week, at 25° C., only 14% of the complex dissociated. When the water content was increased to 43%, half the complex dissociated in a week.

Data set [2] relates to SOD-deficient E. coli JI132. Nature of the data set: Aerobic growth of SOD-deficient E. coli in minimal medium. It is filed as cell-based. The note with it: minimal (five amino acids) medium. Here is the method:
FIG. 13. […] The 20 mM ethanolic/albumin solution of compound was diluted into the medium. Also the growth of SOD-deficient E. coli was followed in the presence of 0.15% ethanol only (squares).
SOD activity can be monitored in the presence and absence of EDTA using the method of McCord and Fridovich (J. Biol. Chem. 244:6049 (1969)). The efficacy of a mimetic can also be determined by measuring the effect of the mimetic on the aerobic growth of a SOD null E. coli strain versus a parent strain. Specifically, parental E. coli (AB1157) and SOD null E. coli. […]
Effects on E. coli. E. coli strains AB1157 (SOD-proficient, wild type) and JI132 (SOD-deficient, sodAsodB) were obtained from J. A. Imlay (Imlay et al, J. Bacteriol. 169:2967 (1987)). […] Cultures were treated as previously described (Faulkner et al, J. Biol. Chem. 269:23471 (1994); Benov et al, J. Biol. Chem. 273:10313 (1998)). Due to the low water solubility, the compounds were solubilized with albumin in medium at a 1:1 molar ratio. Albumin itself had no effect on growth in the concentration range employed. Since methanol was toxic to the SOD-deficient strain of E. coli even when present in medium at 0.15%, the stock solutions of the compounds were prepared in ethanol.

Data set [3] in a line: pH* titration / protonation of the ligand. It is filed as physicochemical. Particulars: 90/10 methanol/aqueous solution, 0.01 M tris and Pipes buffer. Here is the method: Uv/vis Spectroscopy. […] Also the effects of EDTA, H2O2, and the methanol/water ratio on the stability of the manganese(III) complex were examined. […] Tris and Pipes buffers along with 1.0 M methanol/aqueous (90/10) solution of HCl were used for pH^* adjustments in methanol/aqueous solutions. The pH^* readings were measured on an Oakton pH-Meter equipped with a Denver Instruments combination glass electrode that was calibrated in methanol/water (90/10, v/v) buffer solutions: 10 mM oxalic acid/10 mM ammonium oxalate (pH^*=3.59) and 10 mM succinic acid/lithium hydrogen succinate (pH^*=6.55) (De Ligny et al. A. Rec. Trav. Chim. Pays-Bas 79:699 (1960)). When needed the biliverdin and biliverdin dimethylester as well as their reduced forms bilirubin and bilirubin dimethylester were studied.
Uv/Vis Spectroscopy. At pH^* 7.4 biliverdin dimethylester is in a fully deprotonated form, BVDME^3−. […] Carboxyl groups are separated from the main chromophores by two methylene groups, so that their ionization is not detectable spectrophotometrically. Thus the spectra of biliverdin and its ester are the same (Gray et al, J. Chem. Soc. 2276 (1961); Kuenzle et al. Biochem. J. 130:1147 (1972); O'Carra, Nature 899 (1962)). […] The kinetic trace recorded upon fast mixing of the 30 μM BVDME^3− with 75 μM or 150 μM MnCl2, fits to a single-exponential equation with a zero intercept. […]

The nature of data set [4]: SOD activity, xanthine oxidase/cytochrome c method. It is filed as biochemical. Particulars: for SOD-like activity (in words): 0.05 M phosphate buffer, pH 7.8, 0.1 mM EDTA. The method, then: FIG. 12. […] The v0 is the rate of reduction of 10 μM cytochrome c by O2. The vi is the rate of reduction of cytochome c inhibited by the porphyrin catalyst in the presence of 0.1 mM EDTA in 0.05 M tris buffer at pH 7.8. 40 μM xanthine. ˜2 nM xanthine oxidase at 25° C. The total volume of the assay solution is 3 mL.
SOD Activity. Catalysis of the dismutating of O2 in vitro was followed by the xanthine oxidase/cytochrome c method (McCord et al, J. Biol. Chem. 244:6049 (1969)).
Dismutation of superoxide anion, O2^−. Assays were conducted in 0.05 M aqueous phosphate buffer, pH 7.8, 0.1 mM EDTA, ±15 μg/mL of catalase, ±albumin. Rate constants for the reaction with O2^−were based upon the competition of the compounds with cytochrome c.
(§1) Two metallotetrapyrroles were tested for antioxidant activity, in vitro. In particular, the compounds were assayed for their ability to dismutate superoxide in the indirect method that utilizes xanthine and xanthine oxidase to generate superoxide and cytochrome c reduction as indicator of superoxide flux. […] The compounds were also assayed for their ability to prevent lipid peroxidation of rat brain homogenates by iron and ascorbate. The mixture of iron and ascorbate generates reactive oxygen species that oxidize biological lipids and these oxidized lipids can be detected as species that react with thiobarbituric acid (TBARS).
a) SOD activity determined using a xanthine oxidase/cytochrome c assay

Data set [5] can be described thus: SOD activity, xanthine oxidase/cytochrome c method. Particulars: absence of EDTA. It is filed as biochemical.
The nature of data set [6]: Cyclic voltammetry, metal-centered redox potential. It is filed as physicochemical. The note with it: Mn(III)/Mn(II) couple. Here is the method: Manganese(III) Salen. The compound was prepared by the published procedure (Boucher, J. lnorg. Nucl. Chem. 36:531 (1974)). The uv/vis in water: ε235=3.70×10^4 cm^−1 M^−1, ε279=1.70×10^4 cm^−1 M^−1, ε397=4.60×10^3 cm^−M^−1. The elemental analysis: Anal. Calcd for Mn^IIIsalenCl, C16H14N2O2MnCl: C, 53.88; H, 3.96; N; 7.85. Found: C, 54.02; H, 4.06; N, 7.85. […] Based on the E1/2 of Mn^IIITM-2-PyP^5+, ferrocenemethanol and of K3Fe(CN)6 in water and methanol, the redox potential of Mn^III salen^+ in water was calculated to be E1/2=−0.13 V vs NHE.
Electrochemistry of the Manganese(III) Biliverdin Dimethylester. Measurements were made using a CH Instruments model 600 voltammetric analyzer as described previously(Batinic-Haberle et al, Inorg. Chem. 38:4011 (1999)). A three-electrode system in a small volume (0.5-3.0 mL), with a 3 mm diameter glassy carbon button working electrode (Bioanalytical Systems), Ag/AgCl reference electrode (3 M NaCl, Bioanalytical Systems), and a Pt wire (0.5 mm) as auxiliary electrode, were used. The cyclic votammetry was performed on 0.5 mM (per manganese) methanol/aqueous (90/10, v/v) solutions of the compounds investigated. The ionic strength was kept at 0.10 M (NaCl), and 0.05 M tris buffer was used for pH^* adjustment. For calibration purposes, compounds of different hydrophilicities, […], (Kolthof et al, J. Phys. Chem. 39:945 (1935)) ferrocenemethanol and Mn^IIITM-2-PyP^5+ were studied in both aqueous and methanol/aqueous (90/10, v/v) solutions (I=0.10 M NaCl, 0.05 M tris buffer, pH^* 7.9). In all cases the measured E1/2 was 170 mV more positive in methanolic than in aqueous solution and this value was used to predict the redox potential in aqueous solution from measurement in methanol/aqueous solution.

The nature of data set [7]: Degradation by H2O2 followed by uv/vis spectroscopy. It is filed as physicochemical. The note with it: pH 7.8; for fraction degraded by H2O2: 4.4 h, 60 μM. The text has this:
Uv/vis Spectroscopy. […] Also the effects of EDTA, H2O2, and the methanol/water ratio on the stability of the manganese(III) complex were examined. […] 79:699 (1960)). When needed the biliverdin and biliverdin dimethylester as well as their reduced forms bilirubin and bilirubin dimethylester were studied. At μM concentrations, manganese(III) and iron(III) porphyrins are degraded by H2O2 in aqueous solution. pH 7.8 (Batinic-Haberle et al, Inorg. Chem. 38:4011 (1999), Everett et al, J. Trans. Faraday Soc. 49:410 (1953)). […] The reaction was followed in 90/10, v/v methanouaqueous solution at pH^* 7.9. […] The uv/vis spectroscopy indicated degradation via the reduction of biliverdin to bilirubin followed by loss of metal (Gray et al, J. Chem. Soc. 2276 (1961); Kuenzle et al, Biochem. J. 130:1147 (1972); […], Nature 899 (1962)). The interaction of biliverdin and bilirubin with H2O, was also followed in 0.05 M tris buffer, pH 7.8. As observed for its metal complex, biliverdin undergoes reduction by H2O2 via bilirubin. Under pseudo-first order conditions (6 mM to 60 mM H2O2, 60 μM biliverdin), the second-order rate constant was k=3×10^-3 M^-1 s^-1. Bilirubin is more resistant to H2O2 than biliverdin or its metal complex. The disappearance of bilirubin was followed at 435 nm (Gray et al, J. Chem. Soc. 2268 (1961)). Under conditions given above and at 60 mM H2O2, about 40% of the biliverdin and 14% of bilirubin was degraded within 4.4 hours, and about 14% of the complex was degraded inside 80 min.

For data set [8] the following is noted: H4BV^+; literature (Gray et al; Kuenzle et al; O'Carra); cited from earlier work.
The next data set relates to rat brain homogenates. Nature of the data set: Lipid peroxidation of rat brain homogenates by iron/ascorbate (TBARS). It is filed as biochemical. The note with it: concentration that reduced lipid peroxidation by one-half. The method, then:
The ability of mimetics to inhibit lipid peroxidation can be assessed as described by Day et al, Free Rad. Biol. Med. 26:730 (1990). Iron and ascorbate can be used to initiate lipid peroxidation in tissue homogenates and the formation of thiobarbituric acid reactive species (T BARS) measured.
as §1, with “(TBARS). Both compounds could inhibit the formation of TBARS and this ability correlated with their superoxide dismutase (SOD) activity (Table 5).” for “(TBARS).”
b) Lipid peroxidation was initiated in rat brain homogenates with iron/ascorbate and the IC50 is the concentration of compound that reduced lipid peroxidation by one-half.

Marks after values point to notes of the source that are not given here.

For orientation: pKa means the negative logarithm of the acid dissociation constant. As usually defined, the IC50 is the concentration that gives 50% inhibition.

On to `C=CC1=C(C)C2=CC3=NC(=Cc4c(CCC(=O)O)c(C)c5[n]4[Mn]([O]C4=NC(=Cc6c(C)c(CCC(=O)O)c7[n]6[Mn]([O]C6=NC(=C5)C(C=C)=C6C)[N]5C(=O)C(C=C)=C(C)C5=CC5=NC(=C7)C(CCC(=O)O)=C5C)C(C=C)=C4C)[N]2C1=O)C(CCC(=O)O)=C3C` [(Mn^IIIBV)2, Mn^III Biliverdin], for which, in [1], the “stability in water solution” value is recorded as “lacks adequate stability in water solution”.
As to `C=CC1=C(C)/C(=C/C2=NC(=C\c3[nH]c(/C=C4/NC(=O)C(C)=C4C=C)c(C)c3CCC(=O)OC)/C(CCC(=O)OC)=C2C)NC1=O` [BVDME^3−, Biliverdin IX dimethylester, reference compound], the “effect on SOD-deficient E. coli growing under aerobic conditions (in words)” value in data set [2] is given as “neither beneficial nor toxic”. In data set [3], the “pH* region in which protonation occurs” value is given as “below 4”.
With `[Cl-].[Mn+3].[O-]c1ccccc1C=NCCN=Cc1ccccc1[O-]` [Mn^III/IIsalen^−/0, Manganese(III) Salen, reference compound], the “SOD-like activity (in words)” value in data set [4] was “observed only in the absence of chelator”. The SOD specific activity in data set [5] was 700^f U/mg. Besides, the “kcat, O2^− dismutation” value in [5] (25° C.) is listed as 6.0 × 10^5f M^−1 s^−1. The “E1/2, V vs Ag/AgCl” value in data set [6] (90/10 (v/v) methanol/aqueous solution, pH* 7.9) was −0.23 V vs Ag/AgCl. Moreover, the “E1/2, V vs NHE” value in [6] (extrapolated/calculated redox potential in aqueous solution) is reported as −0.13 V vs NHE.
As to `C=CC1=C(C)/C(=C/c2[nH]c(Cc3[nH]c(/C=C4\NC(=O)C(C)=C4C=C)c(C)c3CCC(=O)O)c(CCC(=O)O)c2C)NC1=O` [bilirubin, bilirubin IX], the “fraction degraded by H2O2” value in data set [7] is on record as “about 14%”.
Consider `C=CC1=C(C)/C(=C/C2=NC(=C\c3[nH]c(/C=C4\NC(=O)C(C)=C4C=C)c(C)c3CCC(=O)O)/C(CCC(=O)O)=C2C)NC1=O` [biliverdin, biliverdin IX], for which the “SOD-like activity (in words)” value in [4] is listed as “Neither biliverdin nor bilirubin showed any observable SOD-like activity”. In addition, the “second-order rate constant k of reaction with H2O2” value in [7] (0.05 M tris buffer, 6 mM to 60 mM H2O2, 60 μM) is 0.003 M⁻¹ s⁻¹. Besides, the “fraction degraded by H2O2” value in [7] is “about 40%”. Moreover, the pKa in data set [8] is reported as about 3.
Compound “manganese (III) bilirubin ditaurate [MnBRDT]” registered an IC50 in the data set on rat brain homogenates of 70 µM. The “SOD Activity” value in data set [4] (xanthine oxidase/cytochrome c assay) is 6.2 USOD/mg.
